Experimental data: PMC12669672, “Structural insights into selective and dual antagonism of EP2 and EP4 prostaglandin receptors” (The EMBO Journal, 2025)
Where “and” joins values, the source holds several entries; their conditions need not be identical. Equal entries are not always repeated.

What was measured:
Format in all cases: cell-based
[1] = molecular target: T1, constitutively active EP2 S308A (Homo sapiens, UniProt P43116, S308A); assay: GloSensor cAMP assay, inhibition of constitutive activity
T1 construct: The full-length EP2 or EP4 was cloned into the pcDNA3.1 vector; FLAG (N); expressed in transfected cells; host or cells: AD293 cells
Description: (§1) The full-length EP2 or EP4 was cloned into the pcDNA3.1 vector (Invitrogen), incorporating an N-terminal FLAG tag. AD293 cells were seeded in six-well plates containing DMEM supplemented with 10% dialyzed FBS 1 day prior to transfection. Following overnight growth, cells were transfected with a 1:1 ratio of receptor construct and GloSensor22F cAMP biosensor (Promega) plasmids.
(§2) Twenty-four hours post-transfection, the cells were transferred to CO2-independent media containing 2% GloSensor cAMP Reagent (Promega) and distributed into 384-well assay plates at a density of 4000 cells per well in 10 μL. […] The plates were then incubated at 37 °C for an additional hour before luminescence measurements were taken using an EnVision plate reader.
(§3) Data analysis was performed using GraphPad Prism software v8.0.1. A nonlinear regression analysis, employing a sigmoidal dose–response model, was conducted to determine the Emax values and half-maximum inhibitory concentrations (IC50) for each compound tested.

[2] = molecular target: T2, constitutively active EP2 S305A (Homo sapiens, UniProt P43116, S305A); assay: as above; conditions: for cAMP activity (∆pIC50 from EP2 WT): PF-04418948, S305A
T2 construct: The full-length EP2 or EP4 was cloned into the pcDNA3.1 vector; FLAG (N); expressed in transfected cells; host or cells: AD293 cells
Description: as §1, §2, §3

[3] = molecular target: T3, constitutively active EP2 M116A (Homo sapiens, UniProt P43116, M116A); assay: as above
T3 construct: The full-length EP2 or EP4 was cloned into the pcDNA3.1 vector; FLAG (N); expressed in transfected cells; host or cells: AD293 cells
Description: as §1, §2, §3

[4] = molecular target: T4, constitutively active EP2 W186A (Homo sapiens, UniProt P43116, W186A); assay: as above
T4 construct: The full-length EP2 or EP4 was cloned into the pcDNA3.1 vector; FLAG (N); expressed in transfected cells; host or cells: AD293 cells
Description: as §1, §2, §3

[5] = molecular target: T5, constitutively active EP2 S86A (Homo sapiens, UniProt P43116, S86A); assay: as above; conditions: for cAMP activity (∆pIC50 from EP2 WT): PF-04418948, S86A
T5 construct: The full-length EP2 or EP4 was cloned into the pcDNA3.1 vector; FLAG (N); expressed in transfected cells; host or cells: AD293 cells
Description: as §1, §2, §3

[6] = molecular target: T6, constitutively active EP2 WT (Homo sapiens, UniProt P43116); assay: as above
T6 construct: The full-length EP2 or EP4 was cloned into the pcDNA3.1 vector; FLAG (N); expressed in transfected cells; host or cells: AD293 cells
Description: as §1, §2, §3

[7] = molecular target: T7, constitutively active EP2 T82A (Homo sapiens, UniProt P43116, T82A); assay: as above
T7 construct: The full-length EP2 or EP4 was cloned into the pcDNA3.1 vector; FLAG (N); expressed in transfected cells; host or cells: AD293 cells
Description: as §1, §2, §3

EP2-I85V = molecular target: T8, EP2-I85V (Homo sapiens, UniProt P43116, I85V); assay: GloSensor cAMP assay, antagonism of PGE2-induced cAMP, chimeric studies; conditions: single experiments 1st-3rd
T8 construct: The full-length EP2 or EP4 was cloned into the pcDNA3.1 vector; FLAG (N); expressed in transfected cells; host or cells: AD293 cells
Description: as §1, §2, §3

EP2-M116L = molecular target: T9, EP2-M116L (Homo sapiens, UniProt P43116, M116L); assay: as above; conditions: single experiments 1st-3rd
T9 construct: The full-length EP2 or EP4 was cloned into the pcDNA3.1 vector; FLAG (N); expressed in transfected cells; host or cells: AD293 cells
Description: as §1, §2, §3

[8] = 1 h, PF-04418948 log([M]) -8.00, read-out: % cAMP activity (normalized to WT)
[9] = 1 h, PF-04418948 log([M]) -9.00, read-out: % cAMP activity (normalized to WT)
[10] = 1 h, PF-04418948 log([M]) -10.00, read-out: % cAMP activity (normalized to WT)
[11] = 1 h, PF-04418948 log([M]) -11.00, read-out: % cAMP activity (normalized to WT)
[12] = 1 h, PF-04418948 log([M]) -12.00, read-out: % cAMP activity (normalized to WT)
[13] = no PGE2, pIC50 mutant - pIC50 WT, mean
[14] = 1 h, PF-04418948 log([M]) -5.00, read-out: % cAMP activity (normalized to WT)
[15] = 1 h, PF-04418948 log([M]) -6.00, read-out: % cAMP activity (normalized to WT)
[16] = 1 h, ligand log([M]) -5, Fig. S7B, read-out: % cAMP activity (normalized to WT)
[17] = 1 h, ligand log([M]) -6, Fig. S7B, read-out: % cAMP activity (normalized to WT)
[18] = 1 h, ligand log([M]) -7, Fig. S7B, read-out: % cAMP activity (normalized to WT)
[19] = 1 h, ligand log([M]) -8, Fig. S7B, read-out: % cAMP activity (normalized to WT)
[20] = 1 h, ligand log([M]) -9, Fig. S7B, read-out: % cAMP activity (normalized to WT)
[21] = 1 h, ligand log([M]) -10, Fig. S7B, read-out: % cAMP activity (normalized to WT)
[22] = 1 h, ligand log([M]) -12, Fig. S7B, read-out: % cAMP activity (normalized to WT)

T5 sequence (P43116 whole entry S86A): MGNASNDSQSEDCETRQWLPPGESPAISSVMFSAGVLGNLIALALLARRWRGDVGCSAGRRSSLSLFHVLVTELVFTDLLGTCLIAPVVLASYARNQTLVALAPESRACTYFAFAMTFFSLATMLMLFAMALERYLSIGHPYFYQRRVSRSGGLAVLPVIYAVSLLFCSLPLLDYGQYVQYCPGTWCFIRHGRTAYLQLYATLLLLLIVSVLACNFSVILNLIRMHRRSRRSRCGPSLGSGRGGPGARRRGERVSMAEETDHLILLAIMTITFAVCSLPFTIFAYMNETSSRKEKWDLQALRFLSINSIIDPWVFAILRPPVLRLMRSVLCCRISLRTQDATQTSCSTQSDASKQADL
T9 sequence (P43116 whole entry M116L): as the sequence (P43116 whole entry S86A) above, with A86S, M116L counted along it
T7 sequence (P43116 whole entry T82A): as the sequence (P43116 whole entry S86A) above, with T82A, A86S counted along it
T1 sequence (P43116 whole entry S308A): as the sequence (P43116 whole entry S86A) above, with A86S, S308A counted along it
T2 sequence (P43116 whole entry S305A): as the sequence (P43116 whole entry S86A) above, with A86S, S305A counted along it
T3 sequence (P43116 whole entry M116A): as the sequence (P43116 whole entry S86A) above, with A86S, M116A counted along it
T8 sequence (P43116 whole entry I85V): as the sequence (P43116 whole entry S86A) above, with I85V, A86S counted along it
T4 sequence (P43116 whole entry W186A): as the sequence (P43116 whole entry S86A) above, with A86S, W186A counted along it
T6 sequence (P43116 whole entry): as the sequence (P43116 whole entry S86A) above, with A86S counted along it

- remaining activity at 0.01 µM [1, 8]: 45.3%
- remaining activity at 0.001 µM [1, 9]: 80.9%
- remaining activity at 0.0001 µM [1, 10]: 93%
- remaining activity at 10 pM [1, 11]: 84.1%
- remaining activity at 1 pM [1, 12]: 68.1%
- cAMP activity (∆pIC50 from EP2 WT) ([1]; PF-04418948, S308A, Mean): -0.283
- ΔpIC50 [1, 13]: -0.28 ± 0.10
- cAMP activity (∆pIC50 from EP2 WT) ([2]; Mean): -1.012
- cAMP activity (∆pIC50 from EP2 WT) ([2]; single experiments 1st-3rd): -1.044 and -1.010 and -0.982
- ΔpIC50 [2, 13]: -1.01 ± 0.02
- remaining activity at 10 µM [3, 14]: 5.6%
- remaining activity at 1 µM [3, 15]: 38.1%
- remaining activity at 0.0001 µM [3, 10]: 245%
- remaining activity at 10 pM [3, 11]: 252%
- cAMP activity (∆pIC50 from EP2 WT) ([3]; PF-04418948, M116A, Mean): -1.518
- ΔpIC50 [3, 13]: -1.52 ± 0.12
- remaining activity at 1 µM [4, 15]: 49.1%
- remaining activity at 0.01 µM [4, 8]: 95.7%
- remaining activity at 0.001 µM [4, 9]: 94.5%
- remaining activity at 0.0001 µM [4, 10]: 103%
- remaining activity at 10 pM [4, 11]: 108%
- remaining activity at 1 pM [4, 12]: 90.9%
- cAMP activity (∆pIC50 from EP2 WT) ([4]; PF-04418948, W186A, Mean): -2.049
- ΔpIC50 [4, 13]: -2.05 ± 0.09
- remaining activity at 10 µM [5, 14]: 14.6%
- remaining activity at 1 µM [5, 15]: 35.7%
- cAMP activity (∆pIC50 from EP2 WT) ([5]; Mean): -0.316
- cAMP activity (∆pIC50 from EP2 WT) ([5]; single experiments 1st-3rd): -0.355 and -0.329 and -0.263
- remaining activity at 0.1 µM ([6]; 1 h, PF-04418948 log([M]) -7.00, read-out: % cAMP activity (normalized to WT)): 10.6%
- remaining activity at 0.01 µM [6, 8]: 44.6%
- remaining activity at 0.001 µM [6, 9]: 89.9%
- remaining activity at 0.0001 µM [6, 10]: 92.4%
- remaining activity at 10 pM [6, 11]: 102%
- remaining activity at 1 pM [6, 12]: 104%
- cAMP activity (∆pIC50 from EP2 WT) ([6]; PF-04418948, WT, single experiments 1st-3rd): -0.051 and 0.118 and -0.068
- remaining activity at 0.0001 µM [7, 10]: 302%
- remaining activity at 1 pM [7, 12]: 299%
- cAMP activity (∆pIC50 from EP2 WT) ([7]; PF-04418948, T82A, Mean): -0.369
- ΔpIC50 [7, 13]: -0.37 ± 0.10
- remaining activity at 10 µM (EP2-I85V; [16]): 4.76%
- remaining activity at 1 µM (EP2-I85V; [17]): 5.53%
- remaining activity at 0.1 µM (EP2-I85V; [18]): 21.6%
- remaining activity at 0.01 µM (EP2-I85V; [19]): 78.7%
- remaining activity at 0.001 µM (EP2-I85V; [20]): 105%
- remaining activity at 0.0001 µM (EP2-I85V; [21]): 94.6%
- remaining activity at 10 pM (EP2-I85V; 1 h, ligand log([M]) -11, Fig. S7B, read-out: % cAMP activity (normalized to WT)): 103%
- remaining activity at 1 pM (EP2-I85V; [22]): 91.7%
- cAMP activity (∆pIC50 from EP2 WT) (EP2-I85V; Appendix Fig. S7A): -0.301 and -0.398 and -0.280
- remaining activity at 10 µM (EP2-M116L; [16]): 11.8%
- remaining activity at 1 µM (EP2-M116L; [17]): 12%
- remaining activity at 0.1 µM (EP2-M116L; [18]): 36.7%
- remaining activity at 0.01 µM (EP2-M116L; [19]): 98.5%
- remaining activity at 0.001 µM (EP2-M116L; [20]): 132%
- remaining activity at 0.0001 µM (EP2-M116L; [21]): 123%
- remaining activity at 1 pM (EP2-M116L; [22]): 116%
- cAMP activity (∆pIC50 from EP2 WT) (EP2-M116L; Appendix Fig. S7A): -0.408 and -0.463 and -0.307
Structure (SMILES): COc1ccc2cc(OCC3(C(=O)O)CN(C(=O)c4ccc(F)cc4)C3)ccc2c1 [PF-04418948]
